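Cultured in 96-well plates, cells were exposed to test compound for 48 hours across five concentrations. GI50 = concentration required for 50% inhibition of growth.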 Active and inactive are the calls of the source. Rule as the data show it: active = GI50 up to about 1.1 µM and inactive = higher.
Experiments:
Test in all cases: NCI anticancer screen, dose series, 48 h
SF-295 = tested on: SF-295
SW-620 = tested on: SW-620
NCI/ADR-RES = tested on: NCI/ADR-RES
KM12 = tested on: KM12
IGROV-1 = tested on: IGROV-1
T47D = tested on: T47D
OVCAR-3 = tested on: OVCAR-3
PC-3 = tested on: PC-3
A498 = tested on: A498
SF-268 = tested on: SF-268
HOP-18 = tested on: HOP-18
DMS-114 = tested on: DMS-114
OVCAR-4 = tested on: OVCAR-4
EKVX = tested on: EKVX
M19-MEL = tested on: M19-MEL
SF-539 = tested on: SF-539
HOP-92 = tested on: HOP-92
DMS-273 = tested on: DMS-273
NCI-H522 = tested on: NCI-H522
SN12C = tested on: SN12C
TK-10 = tested on: TK-10
RXF 631 = tested on: RXF 631
ACHN = tested on: ACHN
HL-60 = tested on: HL-60
UO-31 = tested on: UO-31
RPMI-8226 = tested on: RPMI-8226
COLO 205 = tested on: COLO 205
XF498 = tested on: XF498
MDA-N = tested on: MDA-N
K562 = tested on: K562
HT-29 = tested on: HT-29
NCI-H460 = tested on: NCI-H460
CCRF-CEM = tested on: CCRF-CEM
UACC-62 = tested on: UACC-62
OVCAR-8 = tested on: OVCAR-8
MOLT-4 = tested on: MOLT-4
Hs-578T = tested on: Hs-578T
OVCAR-5 = tested on: OVCAR-5
HCT-116 = tested on: HCT-116
UACC-257 = tested on: UACC-257
CAKI-1 = tested on: CAKI-1
SK-MEL-28 = tested on: SK-MEL-28
MCF7 = tested on: MCF7
Malme-3M = tested on: Malme-3M
BT-549 = tested on: BT-549
SNB-19 = tested on: SNB-19
HCT-15 = tested on: HCT-15
786-0 = tested on: 786-0
SR = tested on: SR
DLD-1 = tested on: DLD-1
MDA-MB-435 = tested on: MDA-MB-435
HCC 2998 = tested on: HCC 2998
KM-20L2 = tested on: KM-20L2
A549 = tested on: A549
U-251 = tested on: U-251
NCI-H226 = tested on: NCI-H226
MDA-MB-231 = tested on: MDA-MB-231
LOX IMVI = tested on: LOX IMVI
RXF 393 = tested on: RXF 393
SNB-75 = tested on: SNB-75
M14 = tested on: M14
LXFL 529 = tested on: LXFL 529
SK-MEL-5 = tested on: SK-MEL-5
HOP-62 = tested on: HOP-62
SK-OV-3 = tested on: SK-OV-3
DU-145 = tested on: DU-145
SK-MEL-2 = tested on: SK-MEL-2
NCI-H23 = tested on: NCI-H23
SNB-78 = tested on: SNB-78

Q: `O=P1(N(CCCl)CCCl)NCCCO1` (centres undefined) [CYCLOPHOSPHAMIDE ANHYDROUS] was tested. Which GI50 (SF-295) did it give?
A: The GI50 was 169 µM (inactive).

Q: And the GI50 (SW-620)?
A: Its GI50 is > 250 µM (inactive).

Q: What about the GI50 (NCI/ADR-RES) of the same compound?
A: The GI50 was > 250 µM (inactive).

Q: What about the GI50 (KM12) of the same compound?
A: Its GI50 is > 238 µM (inactive).

Q: What about the GI50 (IGROV-1) of the same compound?
A: Its GI50 is > 216 µM (inactive).

Q: And the GI50 (T47D)?
A: Its GI50 is > 88.7 µM (inactive).

Q: What about the GI50 (OVCAR-3) of the same compound?
A: The GI50 was > 243 µM (inactive).

Q: And the GI50 (PC-3)?
A: The GI50 was > 250 µM (inactive).

Q: What about the GI50 (A498) of the same compound?
A: The GI50 was > 238 µM (inactive).

Q: And the GI50 (SF-268)?
A: Its GI50 is > 250 µM (inactive).

Q: And the GI50 (HOP-18)?
A: The GI50 was 121 µM (inactive).

Q: What about the GI50 (DMS-114) of the same compound?
A: The GI50 was > 250 µM (inactive).

Q: And the GI50 (OVCAR-4)?
A: Its GI50 is > 250 µM (inactive).

Q: And the GI50 (EKVX)?
A: The GI50 was > 250 µM (inactive).

Q: And the GI50 (M19-MEL)?
A: Its GI50 is 218 µM (inactive).

Q: What about the GI50 (SF-539) of the same compound?
A: The GI50 was > 250 µM (inactive).

Q: And the GI50 (HOP-92)?
A: Its GI50 is > 246 µM (inactive).

Q: And the GI50 (DMS-273)?
A: The GI50 was > 246 µM (inactive).

Q: And the GI50 (NCI-H522)?
A: Its GI50 is > 250 µM (inactive).

Q: What about the GI50 (SN12C) of the same compound?
A: The GI50 was > 250 µM (inactive).

Q: And the GI50 (TK-10)?
A: The GI50 was > 250 µM (inactive).

Q: What about the GI50 (RXF 631) of the same compound?
A: Its GI50 is > 250 µM (inactive).

Q: And the GI50 (ACHN)?
A: The GI50 was > 250 µM (inactive).

Q: And the GI50 (HL-60)?
A: Its GI50 is 183 µM (inactive).

Q: And the GI50 (UO-31)?
A: Its GI50 is > 250 µM (inactive).

Q: What about the GI50 (RPMI-8226) of the same compound?
A: Its GI50 is > 250 µM (inactive).

Q: What about the GI50 (COLO 205) of the same compound?
A: The GI50 was > 250 µM (inactive).

Q: And the GI50 (XF498)?
A: The GI50 was 177 µM (inactive).

Q: And the GI50 (MDA-N)?
A: Its GI50 is > 250 µM (inactive).

Q: What about the GI50 (K562) of the same compound?
A: The GI50 was 213 µM (inactive).

Q: What about the GI50 (HT-29) of the same compound?
A: Its GI50 is > 226 µM (inactive).

Q: And the GI50 (NCI-H460)?
A: The GI50 was > 238 µM (inactive).

Q: What about the GI50 (CCRF-CEM) of the same compound?
A: The GI50 was 200 µM (inactive).

Q: And the GI50 (UACC-62)?
A: Its GI50 is > 250 µM (inactive).

Q: And the GI50 (OVCAR-8)?
A: The GI50 was > 238 µM (inactive).

Q: And the GI50 (MOLT-4)?
A: Its GI50 is 249 µM (inactive).

Q: And the GI50 (Hs-578T)?
A: Its GI50 is > 250 µM (inactive).

Q: What about the GI50 (OVCAR-5) of the same compound?
A: The GI50 was > 239 µM (inactive).

Q: What about the GI50 (HCT-116) of the same compound?
A: Its GI50 is > 250 µM (inactive).

Q: What about the GI50 (UACC-257) of the same compound?
A: Its GI50 is 211 µM (inactive).

Q: What about the GI50 (CAKI-1) of the same compound?
A: The GI50 was > 192 µM (inactive).

Q: And the GI50 (SK-MEL-28)?
A: The GI50 was > 250 µM (inactive).

Q: And the GI50 (MCF7)?
A: Its GI50 is > 250 µM (inactive).

Q: And the GI50 (Malme-3M)?
A: Its GI50 is > 250 µM (inactive).

Q: And the GI50 (BT-549)?
A: The GI50 was > 250 µM (inactive).

Q: And the GI50 (SNB-19)?
A: The GI50 was > 250 µM (inactive).

Q: And the GI50 (HCT-15)?
A: Its GI50 is greater than 250 µM.

Q: What about the GI50 (786-0) of the same compound?
A: The GI50 was > 250 µM (inactive).

Q: What about the GI50 (SR) of the same compound?
A: The GI50 was > 250 µM (inactive).

Q: And the GI50 (DLD-1)?
A: The GI50 was > 250 µM (inactive).

Q: What about the GI50 (MDA-MB-435) of the same compound?
A: The GI50 was > 250 µM (inactive).

Q: And the GI50 (HCC 2998)?
A: The GI50 was 193 µM (inactive).

Q: What about the GI50 (KM-20L2) of the same compound?
A: Its GI50 is > 250 µM (inactive).

Q: And the GI50 (A549)?
A: Its GI50 is > 239 µM (inactive).

Q: What about the GI50 (U-251) of the same compound?
A: Its GI50 is > 250 µM (inactive).

Q: And the GI50 (NCI-H226)?
A: The GI50 was 249 µM (inactive).

Q: What about the GI50 (MDA-MB-231) of the same compound?
A: The GI50 was > 250 µM (inactive).

Q: What about the GI50 (LOX IMVI) of the same compound?
A: The GI50 was 248 µM (inactive).

Q: And the GI50 (RXF 393)?
A: The GI50 was > 250 µM (inactive).

Q: What about the GI50 (SNB-75) of the same compound?
A: The GI50 was > 232 µM (inactive).

Q: And the GI50 (M14)?
A: Its GI50 is > 250 µM (inactive).

Q: What about the GI50 (LXFL 529) of the same compound?
A: Its GI50 is > 250 µM (inactive).

Q: What about the GI50 (SK-MEL-5) of the same compound?
A: Its GI50 is > 242 µM (inactive).

Q: And the GI50 (HOP-62)?
A: Its GI50 is > 247 µM (inactive).

Q: What about the GI50 (SK-OV-3) of the same compound?
A: The GI50 was 248 µM (inactive).

Q: And the GI50 (DU-145)?
A: The GI50 was > 250 µM (inactive).

Q: What about the GI50 (SK-MEL-2) of the same compound?
A: Its GI50 is > 238 µM (inactive).

Q: And the GI50 (NCI-H23)?
A: The GI50 was > 235 µM (inactive).

Q: And the GI50 (SNB-78)?
A: The GI50 was > 209 µM (inactive).

Source: ChEMBL document CHEMBL1201862, “PubChem BioAssay data set” (2004)
